Article PMC9026428, “New Peptide Based Fluconazole Conjugates with Expanded Molecular Targets” (Pharmaceutics, 2022)
In brackets after ≈: the same amount, converted by molar mass. Non-standard residues stand in square brackets, D forms with d. Residues, ends and D or L forms follow the SMILES beside them. Nle = CCCC[C@H](N)C(=O)O

Columns and labels:
C. albicans ATCC 10231 = conditions: C. albicans ATCC 10231, RPMI-1640, 200 – 0.4 μg/mL range
Protocol: (§1) The selective activities of the FLC-conjugates were calculated according to the following formula
(§2) (1 picture or pasted object on this page, not shown here)

C. glabrata DSM 11226 = conditions: C. glabrata DSM 11226, RPMI-1640, 200 – 0.4 μg/mL range
Protocol: as §1, §2

C. krusei DSM 6128 = conditions: C. krusei DSM 6128, RPMI-1640, 200 – 0.4 μg/mL range
Protocol: as §1, §2

C. parapsilosis DSM 5784 = conditions: C. parapsilosis DSM 5784, RPMI-1640, 200 – 0.4 μg/mL range
Protocol: as §1, §2

C. tropicalis (clinical) = conditions: RPMI-1640, 200 – 0.4 μg/mL range
Protocol: as §1, §2

C. albicans SC5314 = conditions: C. albicans SC5314, RPMI-1640, 200 – 0.4 μg/mL range
Protocol: as §1, §2

[1] = test system: C. albicans opt1-opt5Δptr2Δptr22Δ; conditions: RPMI-1640, 200 – 0.4 μg/mL range
Protocol: as §1, §2

| SMILES | MIC50 (C. albicans ATCC 10231) [µg/mL] | MIC90 (C. albicans ATCC 10231) [µg/mL] | MIC50 (C. glabrata DSM 11226) [µg/mL] | MIC90 (C. glabrata DSM 11226) [µg/mL] | MIC50 (C. krusei DSM 6128) [µg/mL] | MIC90 (C. krusei DSM 6128) [µg/mL] | MIC50 (C. parapsilosis DSM 5784) [µg/mL] | MIC90 (C. parapsilosis DSM 5784) [µg/mL] | MIC50 (C. tropicalis (clinical)) [µg/mL] | MIC90 (C. tropicalis (clinical)) [µg/mL] | MIC50 (C. albicans SC5314) [µg/mL] | MIC90 (C. albicans SC5314) [µg/mL] | MIC50 [1] [µg/mL] | MIC90 [1] [µg/mL] |
| --- | --- | --- | --- | --- | --- | --- | --- | --- | --- | --- | --- | --- | --- | --- |
| CCCC[C@H](NC(=O)[C@H](CCCNC(=N)N)NC(=O)[C@H](Cc1c[nH]c2ccccc12)NC(=O)[C@H](CCC(N)=O)NC(=O)[C@H](Cc1c[nH]c2ccccc12)NC(=O)[C@H](CCCNC(=N)N)NC(=O)[C@H](CCCNC(=N)N)NC(=O)[C@H](CS)NC(=O)[C@H](CCCCN)NC(=O)[C@H](Cc1ccccc1)NC(=O)[C@@H](N)CCCC)C(=O)N[C@@H](CCCCN)C(=O)N[C@@H](CCCCN)C(=O)N[C@@H](CC(C)C)C(=O)NCC(N)=O [LFacinB[Nle^1,11]-NH2] (H-[Nle]FKCRRWQWR[Nle]KKLG-NH2; N-terminus assumed) | > 100 | > 100 | > 100 | > 100 | 100 (≈ 49.6 µM) | 100 (≈ 49.6 µM) | > 100 | > 100 | 50 (≈ 24.8 µM) | > 100 | – | – | – | – |
| CC[C@H](C)[C@H](NC(=O)[C@H](CCCCN)NC(=O)[C@H](CCCCN)NC(=O)[C@H](C)NC(=O)[C@H](CC(C)C)NC(=O)[C@H](C)NC(=O)[C@H](C)NC(=O)[C@H](CC(C)C)NC(=O)[C@H](C)NC(=O)[C@H](CCCCN)NC(=O)[C@H](CC(C)C)NC(=O)[C@H](CC(N)=O)NC(=O)[C@@H](NC(=O)[C@H](CCCCN)NC(=O)CNC(=O)[C@H](CC(C)C)NC(=O)[C@H](CC(C)C)NC(=O)[C@H](Cc1ccc(O)cc1)NC(=O)CNC(=O)[C@H](C)N)[C@@H](C)CC)C(=O)N[C@@H](CC(C)C)C(N)=O [TP10-NH2] | 200 (≈ 91.7 µM) | 200 (≈ 91.7 µM) | 200 (≈ 91.7 µM) | 200 (≈ 91.7 µM) | 50 (≈ 22.9 µM) | 50 (≈ 22.9 µM) | – | – | – | – | 50 (≈ 22.9 µM) | 50 (≈ 22.9 µM) | 25 (≈ 11.5 µM) | 25 (≈ 11.5 µM) |
